The values that follow come from patent publication US20250230147A1, “LACTAMS AS CBL-B INHIBITORS” (Genentech, Inc., priority 2021, published 2025).

For experiment [1], the target named is c-Cbl (Homo sapiens (Human), UniProt P22681). Kind of experiment: C-Cbl LCK Ub TR-FRET assay (c-cbl Lck HTRF). The following applies: for (fold-selectivity): C-cbl Lck HTRF IC50 relative to Cbl-b Lck HTRF IC50. It is filed as biochemical. Summed up:
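Detection reagents added, brief spin, 20 min RT. IC50 fit normalized to no-LCK (low) and DMSO (high) controls.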

The target in experiment [2] is Cbl-b (Homo sapiens (Human), UniProt Q13191). As to the kind of experiment: Cbl-b LCK Ub TR-FRET assay (Cbl-b Lck HTRF). In kind it is biochemical. Summed up:
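TR-FRET (340 nm excitation, 615/665 nm emission) read after adding HA-ubiquitin–UBE2D2 thioester, anti-HA-D2 and streptavidin-Eu. Beforehand, compounds incubated 60 min with biotinylated Cbl-b, then 90 min with His-LCK and ATP (1 mM in 2× mix); IC50 from 10 concentrations, DMSO high and no-LCK low controls.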
(TR-FRET usually uses a lanthanide donor and a delayed reading to cut background.)

Sequence of c-Cbl (P22681 47-435): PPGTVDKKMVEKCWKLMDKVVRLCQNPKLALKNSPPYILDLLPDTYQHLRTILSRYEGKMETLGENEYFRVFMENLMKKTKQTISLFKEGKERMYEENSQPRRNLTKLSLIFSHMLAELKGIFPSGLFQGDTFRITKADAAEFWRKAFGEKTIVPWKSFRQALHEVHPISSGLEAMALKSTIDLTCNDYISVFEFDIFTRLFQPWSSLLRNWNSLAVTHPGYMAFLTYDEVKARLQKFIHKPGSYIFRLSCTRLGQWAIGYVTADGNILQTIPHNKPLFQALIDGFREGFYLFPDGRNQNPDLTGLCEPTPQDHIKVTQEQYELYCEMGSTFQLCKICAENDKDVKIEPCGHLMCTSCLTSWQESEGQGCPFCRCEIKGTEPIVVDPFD
Sequence of Cbl-b (Q13191 40-426): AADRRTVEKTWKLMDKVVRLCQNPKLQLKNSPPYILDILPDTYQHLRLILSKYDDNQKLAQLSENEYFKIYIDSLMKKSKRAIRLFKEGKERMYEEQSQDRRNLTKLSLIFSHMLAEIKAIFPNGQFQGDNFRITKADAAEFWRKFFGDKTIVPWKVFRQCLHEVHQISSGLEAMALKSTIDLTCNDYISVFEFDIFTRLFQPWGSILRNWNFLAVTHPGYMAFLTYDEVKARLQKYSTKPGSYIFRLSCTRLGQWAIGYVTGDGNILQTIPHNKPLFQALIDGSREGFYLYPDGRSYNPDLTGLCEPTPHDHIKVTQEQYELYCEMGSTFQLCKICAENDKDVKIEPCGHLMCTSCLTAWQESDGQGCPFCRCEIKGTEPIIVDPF

For orientation: IC50 means the concentration that gives 50% inhibition. Low values mean inhibition by little substance, high ones a need for much substance. Consider `Cn1cnnc1CC1(c2cccc(N3Cc4c(cc(OCc5c[nH]cn5)cc4C(F)(F)F)C3=O)c2)CC(F)(F)C1` [Compound 422, 6-((1H-imidazol-4-yl)methoxy)-2-(3-(3,3-difluoro-1-((4-methyl-4H-1,2,4-triazol-3-yl)methyl)cyclobutyl)phenyl)-4-(trifluoromethyl)isoindolin-1-one], for which, in experiment [1], the IC50 turned out to be 17 nM and the “(fold-selectivity)” value is “(1.1x)”. In addition, half-maximal inhibition in experiment [2] (IC50) required 16 nM.

With `Cn1cnnc1[C@@H](F)C1(c2cccc(NC(=O)c3cc(CN4CC(C)(CO)C4)cc(C4CC4)n3)c2)CC(F)(F)C1` [Compound 423, (S)-6-cyclopropyl-N-(3-(3,3-difluoro-1-(fluoro(4-methyl-4H-1,2,4-triazol-3-yl)methyl)cyclobutyl)phenyl)-4-((3-(hydroxymethyl)-3-methylazetidin-1-yl)methyl)picolinamide], in experiment [1], the 50% inhibitory concentration (IC50) was 23 nM and the “(fold-selectivity)” value is “(1.0x)”. Further, in experiment [2], the concentration for half-maximal inhibition (IC50) is 23 nM.

Regarding `C[C@@H]1CN(Cc2cc3c(c(C(F)(F)F)c2)CN(c2cccc(C4(Cc5nncn5C)CC(F)(F)C4)c2)C3=O)CCN1` [Compound 424, (R)-2-(3-(3,3-difluoro-1-((4-methyl-4H-1,2,4-triazol-3-yl)methyl)cyclobutyl)phenyl)-6-((3-methylpiperazin-1-yl)methyl)-4-(trifluoromethyl)isoindolin-1-one], in experiment [1], the IC50 was found to be 31 nM and the “(fold-selectivity)” value was “(0.73x)”. In experiment [2], this molecule had an IC50 of 42 nM.

Take `C[C@H]1CN(Cc2cc3c(c(C(F)(F)F)c2)CN(c2cccc(C4(Cc5nncn5C)CC(F)(F)C4)c2)C3=O)CCN1` [Compound 425, (S)-2-(3-(3,3-difluoro-1-((4-methyl-4H-1,2,4-triazol-3-yl)methyl)cyclobutyl)phenyl)-6-((3-methylpiperazin-1-yl)methyl)-4-(trifluoromethyl)isoindolin-1-one]: the 50% inhibitory concentration (IC50) was 22 nM in experiment [1] and 32 nM in experiment [2]. The “(fold-selectivity)” value in experiment [1] is recorded as “(0.68x)”.

As to `CC[C@@H]1CN(Cc2cc3c(c(C(F)(F)F)c2)CN(c2cccc(C4(Cc5nncn5C)CC(F)(F)C4)c2)C3=O)CCN1` [Compound 426, (R)-2-(3-(3,3-difluoro-1-((4-methyl-4H-1,2,4-triazol-3-yl)methyl)cyclobutyl)phenyl)-6-((3-ethylpiperazin-1-yl)methyl)-4-(trifluoromethyl)isoindolin-1-one], in experiment [1], the IC50 worked out at 26 nM and the “(fold-selectivity)” value is given as “(0.73x)”. In experiment [2], this molecule gave an IC50 of 35 nM.

Take `CC[C@H]1CN(Cc2cc3c(c(C(F)(F)F)c2)CN(c2cccc(C4(Cc5nncn5C)CC(F)(F)C4)c2)C3=O)CCN1` [Compound 427, (S)-2-(3-(3,3-difluoro-1-((4-methyl-4H-1,2,4-triazol-3-yl)methyl)cyclobutyl)phenyl)-6-((3-ethylpiperazin-1-yl)methyl)-4-(trifluoromethyl)isoindolin-1-one]: in experiment [1], the half-inhibitory concentration (IC50) was determined as 16 nM and the “(fold-selectivity)” value was “(0.76x)”. The molecule further showed an IC50 in experiment [2] of 21 nM.

For the molecule `CC(C)[C@@H]1CN(Cc2cc3c(c(C(F)(F)F)c2)CN(c2cccc(C4(Cc5nncn5C)CC(F)(F)C4)c2)C3=O)CCN1` [Compound 428, (R)-2-(3-(3,3-difluoro-1-((4-methyl-4H-1,2,4-triazol-3-yl)methyl)cyclobutyl)phenyl)-6-((3-isopropylpiperazin-1-yl)methyl)-4-(trifluoromethyl)isoindolin-1-one], in experiment [1], half-maximal inhibition (IC50) was put at 10 nM and the “(fold-selectivity)” value is recorded as “(0.74x)”. Half-maximal inhibition in experiment [2] (IC50) required 14 nM.

On to `CC(C)[C@H]1CN(Cc2cc3c(c(C(F)(F)F)c2)CN(c2cccc(C4(Cc5nncn5C)CC(F)(F)C4)c2)C3=O)CCN1` [Compound 429, (S)-2-(3-(3,3-difluoro-1-((4-methyl-4H-1,2,4-triazol-3-yl)methyl)cyclobutyl)phenyl)-6-((3-isopropylpiperazin-1-yl)methyl)-4-(trifluoromethyl)isoindolin-1-one], for which, in experiment [1], the IC50 amounted to 20 nM and the “(fold-selectivity)” value is “(0.76x)”. Further, in experiment [2], the half-inhibitory concentration (IC50) was found to be 26 nM.

For the molecule `Cn1cnnc1CC1(c2cccc(N3Cc4c(cc(CN5CCN[C@H](C6CC6)C5)cc4C(F)(F)F)C3=O)c2)CC(F)(F)C1` [Compound 430, (R)-6-((3-cyclopropylpiperazin-1-yl)methyl)-2-(3-(3,3-difluoro-1-((4-methyl-4H-1,2,4-triazol-3-yl)methyl)cyclobutyl)phenyl)-4-(trifluoromethyl)isoindolin-1-one], the IC50 was 35 nM in experiment [1] and 43 nM in experiment [2]. Also, the “(fold-selectivity)” value in experiment [1] was “(0.80x)”.

Consider `Cn1cnnc1CC1(c2cccc(N3Cc4c(cc(CN5CCN[C@@H](C6CC6)C5)cc4C(F)(F)F)C3=O)c2)CC(F)(F)C1` [Compound 431, (S)-6-((3-cyclopropylpiperazin-1-yl)methyl)-2-(3-(3,3-difluoro-1-((4-methyl-4H-1,2,4-triazol-3-yl)methyl)cyclobutyl)phenyl)-4-(trifluoromethyl)isoindolin-1-one], for which, in experiment [1], the half-maximal inhibitory concentration (IC50) is 42 nM and the “(fold-selectivity)” value is “(0.87x)”. For the same molecule, half-maximal inhibition in experiment [2] (IC50) was put at 48 nM.

Turning to `CC(C)[C@H]1CN(C)CCN1Cc1cc2c(c(C(F)(F)F)c1)CN(c1cccc(C3(C(F)(F)c4nncn4C)CC(F)(F)C3)c1)C2=O` [Compound 432, (S)-2-(3-(1-(difluoro(4-methyl-4H-1,2,4-triazol-3-yl)methyl)-3,3-difluorocyclobutyl)phenyl)-6-((2-isopropyl-4-methylpiperazin-1-yl)methyl)-4-(trifluoromethyl)isoindolin-1-one], the half-inhibitory concentration (IC50) stood at 13 nM in experiment [1] and 17 nM in experiment [2]. Moreover, the “(fold-selectivity)” value in experiment [1] is listed as “(0.78x)”.

On to `CN1CCN(Cc2cc3c(c(C(F)(F)F)c2)CN(c2cccc(C4(Cc5nncn5C)CC(F)(F)C4)c2)C3=O)[C@H](C2CC2)C1` [Compound 433, (R)-6-((2-cyclopropyl-4-methylpiperazin-1-yl)methyl)-2-(3-(3,3-difluoro-1-((4-methyl-4H-1,2,4-triazol-3-yl)methyl)cyclobutyl)phenyl)-4-(trifluoromethyl)isoindolin-1-one], for which the 50% inhibitory concentration (IC50) in experiment [1] came out at 120 nM; in experiment [2], 94 nM. In experiment [1], the “(fold-selectivity)” value was “(1.3x)”.

Regarding `CC[C@H]1CN(C)CCN1Cc1cc2c(c(C(F)(F)F)c1)CN(c1cccc(C3(Cc4nncn4C)CC(F)(F)C3)c1)C2=O` [Compound 434, (S)-2-(3-(3,3-difluoro-1-((4-methyl-4H-1,2,4-triazol-3-yl)methyl)cyclobutyl)phenyl)-6-((2-ethyl-4-methylpiperazin-1-yl)methyl)-4-(trifluoromethyl)isoindolin-1-one], in experiment [1], the IC50 came out at 17 nM and the “(fold-selectivity)” value is given as “(0.95x)”. The same molecule displayed a half-maximal inhibitory concentration (IC50) in experiment [2] of 18 nM.

As for `Cn1cnnc1CC1(c2cccc(N3Cc4c(cc([C@H](N)C5CC5)cc4C(F)(F)F)C3=O)c2)CC(F)(F)C1` [Compound 435, (R)-6-(amino(cyclopropyl)methyl)-2-(3-(3,3-difluoro-1-((4-methyl-4H-1,2,4-triazol-3-yl)methyl)cyclobutyl)phenyl)-4-(trifluoromethyl)isoindolin-1-one], the 50% inhibitory concentration (IC50) in experiment [1] and in experiment [2] was 19 nM each time. Further, the “(fold-selectivity)” value in experiment [1] is recorded as “(1.0x)”.

`Cn1cnnc1CC1(c2cccc(N3Cc4c(cc(CN5CCNC[C@H]5C5CC5)cc4C(F)(F)F)C3=O)c2)CC(F)(F)C1` [Compound 436, (R)-6-((2-cyclopropylpiperazin-1-yl)methyl)-2-(3-(3,3-difluoro-1-((4-methyl-4H-1,2,4-triazol-3-yl)methyl)cyclobutyl)phenyl)-4-(trifluoromethyl)isoindolin-1-one]: the half-maximal inhibitory concentration (IC50) in experiment [1] stood at 32 nM; in experiment [2], 34 nM. Also, the “(fold-selectivity)” value in experiment [1] is “(0.97x)”.

With `Cn1cnnc1CC1(c2cccc(N3Cc4c(cc(CN5CCNCC5)cc4C(F)(F)F)C3=O)c2)CC(F)(F)C1` [Compound 437, 2-(3-(3,3-difluoro-1-((4-methyl-4H-1,2,4-triazol-3-yl)methyl)cyclobutyl)phenyl)-6-(piperazin-1-ylmethyl)-4-(trifluoromethyl)isoindolin-1-one], the IC50 is 900 nM in experiment [1] and 62 nM in experiment [2]. The “(fold-selectivity)” value in experiment [1] is “(0.97x)”.

`CC(C)[C@@H]1CN(Cc2cc3c(c(C(F)(F)F)c2)CN(c2cccc(C4(Cc5nncn5C)CC(F)(F)C4)c2)C3=O)CCN1C` [Compound 438, (R)-2-(3-(3,3-difluoro-1-((4-methyl-4H-1,2,4-triazol-3-yl)methyl)cyclobutyl)phenyl)-6-((3-isopropyl-4-methylpiperazin-1-yl)methyl)-4-(trifluoromethyl)isoindolin-1-one]: in experiment [1], the IC50 stood at 32 nM and the “(fold-selectivity)” value is “(0.80x)”. Also, the IC50 in experiment [2] came out at 41 nM.

Take `CC(C)[C@H]1CN(Cc2cc3c(c(C(F)(F)F)c2)CN(c2cccc(C4(Cc5nncn5C)CC(F)(F)C4)c2)C3=O)CCN1C` [Compound 439, (S)-2-(3-(3,3-difluoro-1-((4-methyl-4H-1,2,4-triazol-3-yl)methyl)cyclobutyl)phenyl)-6-((3-isopropyl-4-methylpiperazin-1-yl)methyl)-4-(trifluoromethyl)isoindolin-1-one]: the concentration for half-maximal inhibition (IC50) in experiment [1] turned out to be 7.1 nM; in experiment [2], 12 nM. The “(fold-selectivity)” value in experiment [1] is recorded as “(0.58x)”.

With `Cn1cnnc1CC1(c2cccc(N3Cc4c(cc(CN5CCC[C@](C)(O)C5)cc4C(F)(F)F)C3=O)c2)CC(F)(F)C1` [Compound 440, (S)-2-(3-(3,3-difluoro-1-((4-methyl-4H-1,2,4-triazol-3-yl)methyl)cyclobutyl)phenyl)-6-((3-hydroxy-3-methylpiperidin-1-yl)methyl)-4-(trifluoromethyl)isoindolin-1-one], in experiment [1], inhibition was half-maximal at 110 nM (IC50) and the “(fold-selectivity)” value is given as “(0.79x)”. The molecule further displayed an IC50 in experiment [2] of 140 nM.
